Values joined by “and” are separate entries in the source; they are usually repeats but may differ in a detail not shown here. Identical values can stand only once.
Legend:
human prostate tissues [1] = assay: organ bath, noradrenaline-induced contractions of human prostate strips
Experimental: Human prostate tissues were obtained from patients undergoing radical prostatectomy for prostate cancer (n=107). Patients who underwent previous transurethral resection of the prostate (TURP) were excluded. This study was carried out in accordance with the Declaration of Helsinki of the World Medical Association, and has been approved by the ethics committee of the Ludwig-Maximilians University, Munich, Germany (Ethikkommission bei der LMU Munchen, approval number 19-737). Informed consent was obtained from all patients. According to the ethical approval, samples and data were collected and analyzed anonymously, so that no data on patients' characteristics were stored. Samples were taken immediately after prostatectomy, following macroscopical examination by an uro-pathologist. All tissues were taken from the periurethral zone, considering that most prostate cancers arise in the peripheral zone (Pradidarcheep et al., 2011; Shaikhibrahim et al., 2012). […] BPH is present in 80-83% of patients with prostate cancer (Alcaraz et al., 2009; Orsted and Bojesen, 2013). Typically, such tissues show varying content of prostate-specific antigen (PSA), and different contents of smooth muscle and glandular epithelia, reflecting that BPH is present to different degree (Wang et al., 2016a, 2016c). For macroscopic examination and sampling, the prostate was opened by a single longitudinal cut from the capsule to the urethra. Subsequently, both intersections were checked macroscopically for any obvious tumor infiltration. Because tumors are usually located to the peripheral zone, tumor infiltration in the periurethral zone (where sampling was performed) was very rare (found in less than 1% of prostates). Prostates showing tumors in the periurethral zone in macroscopic inspection were not subjected to sampling and were not included in this study. Organ bath studies were performed immediately after sampling, while samples for molecular analyses were shock frozen in liquid nitrogen and stored at −80° C.
Prostate strips (6×3×3 mm) were mounted in 10 ml aerated (95% 02 and 5% CO2) tissue baths (Danish Myotechnology, Aarhus, Denmark), containing Krebs-Henseleit solution (37° C., pH 7.4) with following composition: 118 mM NaCl, 4.7 mM KCl, 2.55 mM CaCl2), 1.2 mM KH2PO4, 1.2 mM MgSO4, 25 mM NaHCO3, 7.5 mM glucose. In each single experiment, two from four strips obtained from the same prostate were allocated to the control group (without inhibitor or antagonist), and two others to the inhibitor/antagonist group (resulting in duplicate determination for each group in each single experiment). All four samples of one experiment were examined in four chambers of the same organ bath. Consequently, control and inhibitor curves in each series/diagram were obtained from the same prostates, but different prostates were examined for different series/diagrams. […] Only one curve was recorded with each sample, i. e. for one agonist, or for electric field stimulation (EFS).
(§1) After mounting in organ bath chambers, preparations were stretched to 4.9 mN and left to equilibrate for 45 min. […] After the equilibration period, maximum contraction induced by 80 mM KCl was assessed. […]

human prostate tissues [2] = assay: organ bath, EFS-induced (neurogenic) contractions of human prostate strips
From the text: Patients who underwent previous transurethral resection of the prostate (TURP) were excluded. […] Informed consent was obtained from all patients. According to the ethical approval, samples and data were collected and analyzed anonymously, so that no data on patients' characteristics were stored. Samples were taken immediately after prostatectomy, following macroscopical examination by an uro-pathologist. […] For macroscopic examination and sampling, the prostate was opened by a single longitudinal cut from the capsule to the urethra. Subsequently, both intersections were checked macroscopically for any obvious tumor infiltration. […] Prostates showing tumors in the periurethral zone in macroscopic inspection were not subjected to sampling and were not included in this study. Organ bath studies were performed immediately after sampling, while samples for molecular analyses were shock frozen in liquid nitrogen and stored at −80° C.
In each single experiment, two from four strips obtained from the same prostate were allocated to the control group (without inhibitor or antagonist), and two others to the inhibitor/antagonist group (resulting in duplicate determination for each group in each single experiment). All four samples of one experiment were examined in four chambers of the same organ bath. Consequently, control and inhibitor curves in each series/diagram were obtained from the same prostates, but different prostates were examined for different series/diagrams. […] Therefore, and considering that prostate tissues from radical prostatectomy may show considerable heterogeneity, statistical comparisons were only performed between groups within the same series (i. e. containing tissues from the same prostates for inhibitor and control group), but not between series obtained from different prostates (i. e., not across different series of organ bath experiments). Only one curve was recorded with each sample, i. e. for one agonist, or for electric field stimulation (EFS).
Subsequently, chambers were washed three times with Krebs-Henseleit solution for a total of 30 min.
Application of EFS simulates action potentials, resulting in the release of endogenous neurotransmitters, including noradrenaline. […] For EFS, tissue strips were placed between two parallel platinum electrodes connected to a CS4 stimulator (Danish Myotechnology). […] EFS-induced contractile responses were studied at frequencies of 2, 4, 8, 16, and 32 Hz, with train intervals of 30 s between stimulations.
Data analyses and calculations were based on maximum peak heights of contractions. For calculation of agonist- or EFS-induced contractions, tensions were expressed as % of KCl-induced contractions, as this may correct different stromal/epithelial ratios, different smooth muscle content, varying degree of BPH, or any other heterogeneity between prostate samples and patients.

WPMY-1 cells [3] = assay: EdU proliferation assay; assay type: cell-based, human; conditions: 24 h
Experimental: (§2) WPMY-1 cells are an immortalized cell line obtained from human prostate stroma without prostate cancer (Webber et al., 1999). Cells were obtained from American Type Culture Collection (ATCC; Manassas, Va., USA), and kept in RPMI 1640 (Gibco, Carlsbad, Calif., USA) supplemented with 10% fetal calf serum (FCS) and 1% penicillin/streptomycin at 37° C. with 5% CO2. Before addition of onvansertib or DMSO, the medium was changed to a FCS-free medium. For Western blot analysis, cells were lyzed using radioimmunoprecipitation assay (RIPA) buffer (Sigma-Aldrich, St. Louis, Mo., USA), and removed from flasks after 15 min of incubation on ice. Cell debris was removed by centrifugation (10,000 g, 10 min, 4° C.), and different aliquots of supernatants were either subjected to protein determination, or boiled with SDS sample buffer.
WPMY-1 cells were plated with cell line-specific densities (50,000/well) on 16-well chambered coverslips (Thermo Scientific, Waltham, Mass., USA). […] 20 h later, cells were fixed with 3.7% formaldehyde. EdU incorporation was determined using the “EdU-Click 555” cell proliferation assay (Baseclick, Tutzing, Germany) according to the manufacturer's instructions. In this assay, incorporation of EdU into DNA is assessed by detection with fluorescing 5-carboxytetramethylrhodamine (5-TAMRA). Counterstaining of all nuclei was performed with DAPI. Cells were analyzed by fluorescence microscopy (excitation: 546 nm; emission: […]).

human prostate tissues [4] = assay: organ bath, ATP-induced contractions of human prostate strips; conditions: read-out: inhibition of ATP-induced contraction
Experimental: (§3) Human prostate tissues were obtained from patients undergoing radical prostatectomy for prostate cancer (n=107). Patients who underwent previous transurethral resection of the prostate (TURP) were excluded. This study was carried out in accordance with the Declaration of Helsinki of the World Medical Association, and has been approved by the ethics committee of the Ludwig-Maximilians University, Munich, Germany (Ethikkommission bei der LMU Munchen, approval number 19-737). Informed consent was obtained from all patients. According to the ethical approval, samples and data were collected and analyzed anonymously, so that no data on patients' characteristics were stored. […]
(§4) Prostate strips (6×3×3 mm) were mounted in 10 ml aerated (95% 02 and 5% CO2) tissue baths (Danish Myotechnology, Aarhus, Denmark), containing Krebs-Henseleit solution (37° C., pH 7.4) with following composition: 118 mM NaCl, 4.7 mM KCl, 2.55 mM CaCl2), 1.2 mM KH2PO4, 1.2 mM MgSO4, 25 mM NaHCO3, 7.5 mM glucose. […] Only one curve was recorded with each sample, i. e. for one agonist, or for electric field stimulation (EFS).
as §1

WPMY-1 cells [5] = assay: plate colony formation assay; assay type: cell-based, human; conditions: 14 days
Experimental: as §2
Cells were incubated at 37° C. for 14 days, then washed twice with PBS, and fixed by 2 ml of 10% trichloroacetic acid overnight (4° C.). Subsequently, all plates were washed five times with cold water, and stained with 0.4% sulforhodamine B solution (diluted in 1% acetic acid) at room temperature for 30 min. Before taking photos, all plates were labeled and washed five times with 1% acetic acid. The number of colonies containing 50 cells or more was counted under a microscope.

[6] = humans, phase I, even by the lowest dosages tested (Weiss et al., 2018); cited from earlier work
CK2 = conditions: Valsasina et al., 2012; cited from earlier work
[7] = in vivo; cited from earlier work
296 kinases = conditions: cited from earlier work
[8] = CCK-8 viability (cytotoxicity) assay; assay type: cell-based; conditions: human, WPMY-1 cells (immortalized prostate stromal cells), read-out: decrease of viability
Experimental: as §2
Viability of cells was assessed using the Cell Counting Kit-8 (CCK-8) (Sigma-Aldrich, St. Louis, Mo., USA). […] Subsequently, cells were grown for different periods (24, 48, 72 h). Separate controls were performed for each period. At the end of this period, 10 μl of [2-(2-methoxy-4-nitrophenyl)-3-(4-nitrophenyl)-5-(2,4-disulfophenyl)-2H-tetrazolium monosodium salt (WST-8) from CCK-8 was added, and absorbance in each well was measured at 450 nm after incubation for 2 h at 37° C.

human prostate tissues [9] = assay: organ bath, phenylephrine-induced contractions of human prostate strips
Experimental: as §3, §4, §1

human prostate tissues [10] = assay: organ bath, U46619-induced contractions of human prostate strips; conditions: 100 nM onvansertib
Experimental: as §3, §4, §1

human prostate tissues [11] = assay: organ bath, endothelin-1-induced contractions of human prostate strips; conditions: read-out: inhibition of endothelin-1-induced contraction
Experimental: as §3, §4, §1

human prostate tissues [12] = assay: organ bath, methoxamine-induced contractions of human prostate strips
Experimental: as §3, §4, §1

human prostate tissues [13] = conditions: Hennenberg et al., 2018; cited from earlier work
[14] = washout of onvansertib (100 nM) for 30 min

CCOc1ccccc1OCCN[C@H](C)Cc1ccc(OC)c(S(N)(=O)=O)c1 [tamsulosin, 5-[(2 R)-2-[2-(2-ethoxyphenoxy)ethylamino]propyl]-2-methoxybenzenesulfonamide, reference compound]
inhibition at 0.3 µM (human prostate tissues [1]; Homo sapiens, 100 μM noradrenaline, 300 nM tamsulosin): 93 ± 3.5%
inhibition of EFS-induced contraction by add-on of tamsulosin, compared to onvansertib alone (human prostate tissues [2]; 32 Hz, tamsulosin 300 nM combined with onvansertib 100 nM): 68% and 68±12.2%
inhibition at 0.3 µM (human prostate tissues [2]; Homo sapiens, 32 Hz, 300 nM tamsulosin): 48%

C[C@H](Cc1cc2c(c(C(N)=O)c1)N(CCCO)CC2)NCCOc1ccccc1OCC(F)(F)F [silodosin, 1-(3-hydroxypropyl)-5-[(2 R)-2-[2-[2-(2,2,2-trifluoroethoxy)phenoxy]ethylamino]propyl]-2,3-dihydroindole-7-carboxamide, reference compound]
inhibition at 0.1 µM (human prostate tissues [1]; Homo sapiens, 100 μM noradrenaline, 100 nM silodosin): 84 ± 4.99%
inhibition of EFS-induced contraction by add-on of silodosin, compared to onvansertib alone (human prostate tissues [2]; 32 Hz, silodosin 100 nM combined with onvansertib 100 nM): 68% and 68±12.7%
inhibition at 0.1 µM (human prostate tissues [2]; Homo sapiens, 32 Hz, 100 nM silodosin): 47%

CN1CCN(c2ccc(OC(F)(F)F)c(Nc3ncc4c(n3)-c3c(c(C(N)=O)nn3CCO)CC4)c2)CC1 [onvansertib, 1-(2-hydroxyethyl)-8-{[5-(4-methylpiperazin-1-yl)-2-(trifluoromethoxy)phenyl]amino}-4,5-dihydro-1H-pyrazolo[4,3-h] quinazoline-3-carboxamide]
decrease of percentage of proliferating cells (WPMY-1 cells [3]; 10 nM): 18±0.1%
decrease of percentage of proliferating cells (WPMY-1 cells [3]; 50 nM): 24±2.1%
decrease of percentage of proliferating cells (WPMY-1 cells [3]; 100 nM): 35±2.0%
inhibition at 0.1 µM (human prostate tissues [1]; Homo sapiens): 45 ± 9.7%
inhibition at 1 µM (human prostate tissues [1]; Homo sapiens): 41 ± 6.2%
noradrenaline-induced contractions after washout versus DMSO (human prostate tissues [1]; [14]): did not differ
inhibition at 0.1 µM (human prostate tissues [4]): 51 ± 18.6%
decrease of colony formation (WPMY-1 cells [5]; 10 nM): 39±4.5%
decrease of colony formation (WPMY-1 cells [5]; 50 nM): 89±1.9%
decrease of colony formation (WPMY-1 cells [5]; 100 nM): 97±0.4%
plasma concentrations [6]: three-digit nanomolar range
IC50 (CK2): 826 nM
oral bioavailability [7]: good oral bioavailability
kinases inhibited (296 kinases; tested at 100 nM against 296 kinases): inhibition only of PLK1
number of kinases with decreases in activities (<50%) (296 kinases; tested at 1 μM against 296 kinases, including PLK1): 11
cytotoxicity at 24 h, 10 nM ([8]; 10 nM, 24 h): 15 ± 8.8%
cytotoxicity at 48 h, 10 nM ([8]; 10 nM, 48 h): 28 ± 8.3%
cytotoxicity at 72 h, 10 nM ([8]; 10 nM, 72 h): 40 ± 4.4%
cytotoxicity at 24 h, 100 nM ([8]; 100 nM, 24 h): 63 ± 2.2%
cytotoxicity at 48 h, 100 nM ([8]; 100 nM, 48 h): 86 ± 1.9%
cytotoxicity at 72 h, 100 nM ([8]; 100 nM, 72 h): 89 ± 1.4%
inhibition at 0.1 µM (human prostate tissues [9]): 47 ± 16.2%
effect on U46619-induced contractions (human prostate tissues [10]): did not change
inhibition of EFS-induced contraction by add-on of onvansertib, compared to silodosin alone (human prostate tissues [2]; 32 Hz, onvansertib 100 nM combined with silodosin 100 nM): 61% and 61±9.8%
inhibition of EFS-induced contraction by add-on of onvansertib, compared to tamsulosin alone (human prostate tissues [2]; 32 Hz, onvansertib 100 nM combined with tamsulosin 300 nM): 59% and 59±11.5%
inhibition at 0.1 µM (human prostate tissues [2]; Homo sapiens): 34%
inhibition at 1 µM (human prostate tissues [2]; Homo sapiens): 34%
EFS-induced contractions after washout versus DMSO (human prostate tissues [2]; [14]): did not differ
inhibition at 0.1 µM (human prostate tissues [11]): 45 ± 6.6%
inhibition at 0.1 µM (human prostate tissues [12]): 43 ± 19.4%

NC(=O)c1sc2c([N+](=O)[O-])cc(C(F)(F)F)cc2[n+]1[O-] [cyclapolin]
effect on endothelin-1-induced contractions of human prostate tissues (human prostate tissues [13]): did not change

COc1ccc(CCNCc2ccc(OCc3ccc(Cl)nc3)c(OC)c2)cc1OC [SBE 13]
effect on endothelin-1-induced contractions of human prostate tissues (human prostate tissues [13]): did not change
